One may read the inhibition as the share of the control response that was lost under treatment. The term IC50 denotes the concentration that inhibits the measured activity by half.

What all share (type): biochemical
The target of assay [1] is B-Raf V600E (Homo sapiens, UniProt P15056, V600E). The experiment in a line: ELISA-based assay of inhibitory activity against B-Raf V600E (MEK to p-MEK). The note with it: for inhibition at 10 µM: read-out: Inhibition Rate (at 10 μM).
In assay [2] the target is wild type B-Raf (Homo sapiens, UniProt P15056). The experiment in a line: ELISA-based assay, wild type B-Raf.
Assay [3] deals with T1, B-Raf T508A (Homo sapiens, UniProt P15056, T508A).
T1 construct: B-RAFT508A and B-RAFS602A, residues 433–726; made in house; host or cells: Sf9 insect cells (pFastBac Dual)
The experiment in a line: ELISA-based assay, single point mutant B-Raf T508A. The source says:
(§1) The mutant sequence of human BRAF kinase domain (B-RAFT508A and B-RAFS602A, residues 433–726) was inserted into the plasmid of pFastBacTM Dual. Then the recombinant plasmid was transported into the sf9 cells. Mutant protein was expressed and purified respectively.
(In general: An ELISA detects its analyte on a solid surface through an enzyme-linked reagent.)

Assay [4] deals with T2, B-Raf S602A (Homo sapiens, UniProt P15056, S602A).
T2 construct: B-RAFT508A and B-RAFS602A, residues 433–726; made in house; host or cells: Sf9 insect cells (pFastBac Dual)
The experiment in a line: ELISA-based assay, single point mutant B-Raf S602A.
From the text: as §1

Like-named read-outs stand apart in the source and are kept apart here.

Sequence of B-Raf V600E (P15056 whole entry V600E): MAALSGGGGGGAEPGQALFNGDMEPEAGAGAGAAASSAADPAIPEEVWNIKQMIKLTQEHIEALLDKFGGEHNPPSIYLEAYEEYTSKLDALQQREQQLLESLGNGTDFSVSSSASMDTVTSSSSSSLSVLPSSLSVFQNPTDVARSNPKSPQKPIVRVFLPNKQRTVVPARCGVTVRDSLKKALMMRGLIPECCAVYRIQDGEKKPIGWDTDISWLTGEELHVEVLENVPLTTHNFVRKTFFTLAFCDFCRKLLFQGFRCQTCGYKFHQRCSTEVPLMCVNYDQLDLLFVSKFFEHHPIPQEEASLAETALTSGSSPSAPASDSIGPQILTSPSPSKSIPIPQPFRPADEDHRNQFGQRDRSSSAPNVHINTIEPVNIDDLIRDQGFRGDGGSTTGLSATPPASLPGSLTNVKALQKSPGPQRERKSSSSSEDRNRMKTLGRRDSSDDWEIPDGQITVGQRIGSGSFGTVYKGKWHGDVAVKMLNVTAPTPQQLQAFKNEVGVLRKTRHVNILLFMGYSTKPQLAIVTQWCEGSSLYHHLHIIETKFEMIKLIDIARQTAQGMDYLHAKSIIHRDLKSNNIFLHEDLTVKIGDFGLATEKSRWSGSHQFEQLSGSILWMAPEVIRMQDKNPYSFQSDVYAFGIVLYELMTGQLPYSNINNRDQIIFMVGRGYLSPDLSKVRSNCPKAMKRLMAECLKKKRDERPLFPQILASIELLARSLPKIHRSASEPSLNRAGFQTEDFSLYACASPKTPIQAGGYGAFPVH
Sequence of wild type B-Raf (P15056 whole entry): as the sequence (P15056 whole entry V600E) above, with E600V counted along it
T1 sequence (P15056 433-726 T508A): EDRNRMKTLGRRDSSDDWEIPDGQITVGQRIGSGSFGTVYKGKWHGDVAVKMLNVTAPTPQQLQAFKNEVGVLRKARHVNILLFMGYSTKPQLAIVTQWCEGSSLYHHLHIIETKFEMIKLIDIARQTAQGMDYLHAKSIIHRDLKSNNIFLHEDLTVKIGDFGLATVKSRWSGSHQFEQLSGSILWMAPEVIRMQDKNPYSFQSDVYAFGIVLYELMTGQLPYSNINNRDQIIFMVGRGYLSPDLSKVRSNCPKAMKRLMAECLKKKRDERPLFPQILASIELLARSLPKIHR
T2 sequence (P15056 433-726 S602A): as the sequence (P15056 433-726 T508A) above, with A76T, S170A counted along it

Regarding `CCCS(=O)(=O)Nc1ccc(F)c(C(=O)c2c[nH]c3ncc(Cl)cc23)c1F` [PLX4720], in assay [1] (B-Raf V600E, 10 μM), the inhibition at 10 µM amounted to 82.5%.
With `Cc1cc(C(C#N)c2ccc(Cl)cc2)c(Cl)cc1NC(=O)c1cc(I)cc(I)c1O` (centres unmarked) [closantel], the IC50 in assay [2] (wild type B-Raf, read-out: IC50 B-RAF WT) worked out at 1.89 µM; in assay [3] (B-Raf T508A mutant, read-out: IC50 B-RAF T508A), 5.97 µM; in assay [1] (B-Raf V600E, read-out: IC50 B-RAF V600E) it was 1.9 µM; in assay [4] (B-Raf S602A mutant, read-out: IC50 B-RAF S602A), 6.35 µM. In assay [1], the inhibition at 10 µM was 83.9%.
For `CC1(C)C(C=C(Cl)Cl)C1C(=O)OC(C#N)c1cccc(Oc2ccccc2)c1` (centres unmarked) [cypermethrin], in assay [1] (ELISA-based assay, 10 μM), the “activity against B-Raf V600E (in words)” value was “inactive”. The inhibition at 10 µM in assay [1] was 17.6%.
With `O=C(Nc1ccc(Oc2ccc(Cl)cc2)c(Cl)c1)c1cc(I)cc(I)c1O` [rafoxanide], the IC50 in assay [2] is 1.94 µM; in assay [3], 15.7 µM; in assay [1], 0.07 µM; in assay [4] it was 11.4 µM. The inhibition at 10 µM in assay [1] is 73.2%.
In the case of `CCCS(=O)(=O)Nc1ccc(F)c(C(=O)c2c[nH]c3ncc(-c4ccc(Cl)cc4)cc23)c1F` [vemurafenib], the inhibition at 10 µM in assay [1] (B-Raf V600E, 10 μM) worked out at 82.9%.
